Test results reported in US20250313572A1, “MACROCYCLIC MCL-1 INHIBITORS AND METHODS OF USE” (AbbVie Inc., priority 2017, published 2025).
Read-outs that look alike come from different tables or passages of the source.

Tests used:
[1] = system: AMO-1 human multiple myeloma tumor cell line; test: AMO-1 cell viability assay (CellTiter-Glo, 24 hours); assay type: cell-based; conditions: Homo sapiens, AMO1, 24 h, read-out: AMO-1 Viability IC50 (μM, 10% FBS), 10% FBS, 24 hours of compound treatment
GST-MCL-1 = GST-MCL-1 (Homo sapiens, UniProt Q07820); test: TR-FRET MCL-1 binding assay (competition with probe F-Bak)
GST-MCL-1, sequence (Q07820 whole entry): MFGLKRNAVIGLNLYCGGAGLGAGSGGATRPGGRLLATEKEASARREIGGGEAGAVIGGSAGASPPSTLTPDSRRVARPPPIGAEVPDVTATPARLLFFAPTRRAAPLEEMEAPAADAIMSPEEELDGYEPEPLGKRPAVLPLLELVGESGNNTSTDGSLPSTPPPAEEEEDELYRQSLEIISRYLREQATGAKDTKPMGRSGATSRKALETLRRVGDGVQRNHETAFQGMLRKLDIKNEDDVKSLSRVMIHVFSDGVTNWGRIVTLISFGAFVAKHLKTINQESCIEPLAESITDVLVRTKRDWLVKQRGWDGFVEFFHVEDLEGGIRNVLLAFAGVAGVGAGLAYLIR
Summary of the method: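 Displacement of F-Bak from GST-MCL-1 is detected by time-resolved FRET with a Tb-labelled anti-GST antibody, with excitation 340/35 nm and emission 520/525 and 495/510 nm, after 2 hours at room temperature. Compounds were titrated in 11 three-fold steps starting at 25 μM final, in buffer alone or in 10% HS.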

[2] = system: NCI-H929 human multiple myeloma tumor cell line; test: NCI-H929 cell viability assay (CellTiter-Glo, 24 hours); assay type: cell-based; conditions: Homo sapiens, NCI-H929, 24 h, read-out: H929 Viability IC50 (μM, 10% FBS), 10% FBS, 24 hours of compound treatment
[3] = MCL-1 Binding Ki (nM, 10% HS), in the presence of 10% HS (human serum)
[4] = without HS, read-out: MCL-1 Binding Ki

| Structure (SMILES) | IC50 [1] [pM] | Ki (GST-MCL-1; [3]) [nM] | Ki (GST-MCL-1; [4]) [nM] | IC50 [2] [µM] |
| --- | --- | --- | --- | --- |
| CO[C@@H]1CO[C@H]2[C@@H]1OC[C@H]2OCCOc1ccc(-c2nccc(COc3ccc4cc3C[C@H](C(=O)O)Oc3ncnc5sc(-c6ccc(F)cc6)c(c35)-c3c(C)c(Cl)c(c(Cl)c3C)O[C@H](CN3CCN(C)CC3)CO4)n2)cc1 [Example 154, (7R,16R)-19,23-dichloro-1-(4-fluorophenyl)-10-({2-[4-(2-{[(3R,3aR,6R,6aR)-6-methoxyhexahydrofuro[3,2-b]furan-3-yl]oxy}ethoxy)phenyl]pyrimidin-4-yl}methoxy)-20,22-dimethyl-16-[(4-methylpiperazin-1-yl)methyl]-7,8,15,16-tetrahydro-18,21-etheno-13,9-(metheno)-6,14,17-trioxa-2-thia-3,5-diazacyclononadeca[1,2,3-cd]indene-7-carboxylic Acid] | 698 | 0.191 | 0.018 | 0.000643 |
| Cc1c(Cl)c2c(Cl)c(C)c1-c1c(-c3ccc(F)cc3)sc3ncnc(c13)O[C@@H](C(=O)O)Cc1cc(ccc1OCc1ccnc(-c3ccc(CCN4CCOCC4)cc3)n1)OC[C@@H](CN1CCN(C)CC1)O2 [Example 142, (7R,16R)-19,23-dichloro-1-(4-fluorophenyl)-20,22-dimethyl-16-[(4-methylpiperazin-1-yl)methyl]-10-[(2-{4-[2-(morpholin-4-yl)ethyl]phenyl}pyrimidin-4-yl)methoxy]-7,8,15,16-tetrahydro-18,21-etheno-13,9-(metheno)-6,14,17-trioxa-2-thia-3,5-diazacyclononadeca[1,2,3-cd]indene-7-carboxylic Acid] | 48.8 | 0.776 | 0.185 | 0.000156 |
| COCCOCCOCCOCCOCCOCCO[C@H]1CC[C@H](c2nccc(COc3ccc4cc3C[C@H](C(=O)O)Oc3ncnc5sc(-c6ccc(F)cc6)c(c35)-c3c(C)c(Cl)c(c(Cl)c3C)O[C@H](CN3CCN(C)CC3)CO4)n2)CC1 [Example 67, (7R,16R)-19,23-dichloro-1-(4-fluorophenyl)-10-[(2-{(1r,4r)-4-[(2,5,8,11,14,17-hexaoxanonadecan-19-yl)oxy]cyclohexyl}pyrimidin-4-yl)methoxy]-20,22-dimethyl-16-[(4-methylpiperazin-1-yl)methyl]-7,8,15,16-tetrahydro-18,21-etheno-13,9-(metheno)-6,14,17-trioxa-2-thia-3,5-diazacyclononadeca[1,2,3-cd]indene-7-carboxylic Acid] | 1100 | 0.073 | 0.016 | 0.00176 |
| CO[C@@H]1CO[C@H]2[C@@H]1OC[C@H]2Oc1nccc(COc2ccc3cc2C[C@H](C(=O)O)Oc2ncnc4sc(-c5ccc(F)cc5)c(c24)-c2c(C)c(Cl)c(c(Cl)c2C)O[C@H](CN2CCN(C)CC2)CO3)n1 [Example 146, (7R,16R)-19,23-dichloro-1-(4-fluorophenyl)-10-[(2-{[(3R,3aR,6R,6aR)-6-methoxyhexahydrofuro[3,2-b]furan-3-yl]oxy}pyrimidin-4-yl)methoxy]-20,22-dimethyl-16-[(4-methylpiperazin-1-yl)methyl]-7,8,15,16-tetrahydro-18,21-etheno-13,9-(metheno)-6,14,17-trioxa-2-thia-3,5-diazacyclononadeca[1,2,3-cd]indene-7-carboxylic Acid] | 2230 | 0.041 | 0.001 | 0.00408 |
| Cc1c(Cl)c2c(Cl)c(C)c1-c1c(-c3ccc(F)cc3)sc3ncnc(c13)O[C@@H](C(=O)O)Cc1cc(ccc1OCc1ccnc(C3CCS(=O)(=O)C3)n1)OC[C@@H](CN1CCN(C)CC1)O2 (stereo partly drawn) [Example 73, (7R,16R)-19,23-dichloro-10-{[2-(1,1-dioxo-1λ^6-thiolan-3-yl)pyrimidin-4-yl]methoxy}-1-(4-fluorophenyl)-20,22-dimethyl-16-[(4-methylpiperazin-1-yl)methyl]-7,8,15,16-tetrahydro-18,21-etheno-9,13-(metheno)-6,14,17-trioxa-2-thia-3,5-diazacyclononadeca[1,2,3-cd]indene-7-carboxylic Acid] | 2620 | 0.208 | 0.037 | 0.00556 |
| COCCOCCOCCOCC1(F)CC=C(c2nccc(COc3ccc4cc3C[C@H](C(=O)O)Oc3ncnc5sc(C6=CCCC6)c(c35)-c3c(C)c(Cl)c(c(Cl)c3C)O[C@H](CN3CCN(C)CC3)CO4)n2)CC1 (single isomer, unassigned) [Example 125, (7R,16R)-19,23-dichloro-1-(cyclopent-1-en-1-yl)-10-({2-[(4S*)-4-fluoro-4-(2,5,8,11-tetraoxadodecan-1-yl)cyclohex-1-en-1-yl]pyrimidin-4-yl}methoxy)-20,22-dimethyl-16-[(4-methylpiperazin-1-yl)methyl]-7,8,15,16-tetrahydro-18,21-etheno-13,9-(metheno)-6,14,17-trioxa-2-thia-3,5-diazacyclononadeca[1,2,3-cd]indene-7-carboxylic Acid] | 288 | 0.455 | 0.037 | 0.00111 |
| COCCOCCOCCOCC1(c2nccc(COc3ccc4cc3C[C@H](C(=O)O)Oc3ncnc5sc(-c6ccc(F)cc6)c(c35)-c3c(C)c(Cl)c(c(Cl)c3C)O[C@H](CN3CCN(C)CC3)CO4)n2)CCC1 [Example 45, (7R,16R)-19,23-dichloro-1-(4-fluorophenyl)-20,22-dimethyl-16-[(4-methylpiperazin-1-yl)methyl]-10-({2-[1-(2,5,8,11-tetraoxadodecan-1-yl)cyclobutyl]pyrimidin-4-yl}methoxy)-7,8,15,16-tetrahydro-18,21-etheno-13,9-(metheno)-6,14,17-trioxa-2-thia-3,5-diazacyclononadeca[1,2,3-cd]indene-7-carboxylic Acid] | 461 | 0.343 | 0.094 | 0.000598 |
| COCCOCCOCCOCCOCCOCC1(c2nccc(COc3ccc4cc3C[C@H](C(=O)O)Oc3ncnc5sc(-c6ccc(F)cc6)c(c35)-c3c(C)c(Cl)c(c(Cl)c3C)O[C@H](CN3CCN(C)CC3)CO4)n2)CCC1 [Example 59, (7R,16R)-19,23-dichloro-1-(4-fluorophenyl)-10-({2-[1-(2,5,8,11,14,17-hexaoxaoctadecan-1-yl)cyclobutyl]pyrimidin-4-yl}methoxy)-20,22-dimethyl-16-[(4-methylpiperazin-1-yl)methyl]-7,8,15,16-tetrahydro-18,21-etheno-13,9-(metheno)-6,14,17-trioxa-2-thia-3,5-diazacyclononadeca[1,2,3-cd]indene-7-carboxylic Acid] | 686 | 0.122 | 0.047 | 0.000848 |
